Experimental data as given in US10555950B2, “Bile acid recycling inhibitors for treatment of obesity and diabetes” (Satiogen Pharmaceuticals, Inc., priority 2008, dated 2020).
“Also recorded” adds a separate entry of the source.

How the values were obtained:
male db/db mice [1] = experiment: In vivo assay for reduction in blood glucose levels (Example 6, Compound 100A with or without sitagliptin); settings: for reduction in plasma glucose from baseline: after 6 hours
Protocol: FIG. 1 illustrates the change in plasma glucose level in diabetic db/db mice after oral administration of a combination of the ASBTI (−)-(3R,5R)-trans-3-butyl-3-ethyl-2,3,4,5-tetrahydro-7,8-dimethoxy-5-phenyl-1,4-benzothiazepine1,1-dioxide at doses of 0, 0.1, 1, 10 mg/kg and 30 mg/kg sitagliptin (DPP-IV inhibitor) and the ASBTI alone.
FIG. 9 illustrates the change in body weight 24 h after administration of the ASBTI (−)-(3R,5R)-trans-3-butyl-3-ethyl-2,3,4,5-tetrahydro-7,8-dimethoxy-5-phenyl-1,4-benzothiazepine1,1-dioxide (100A) at doses of 0, 0.1, 1, 10 mg/kg in combination with 30 mg/kg sitagliptin (DPP-IV inhibitor) and the ASBTI alone.
Male db/db mice 6-7 weeks (approx 30 g) were fasted for 2 h. A combination of (−)-(3R,5R)-trans-3-butyl-3-ethyl-2,3,4,5-tetrahydro-7,8-dimethoxy-5-phenyl-1,4-benzothiazepine 1,1-dioxide (Compound 100A) at doses of 0, 0.1, 1, 10, mg/kg in 10% of DMSO-water and 30 mg/kg sitagliptin (DPP-IV inhibitor) in a mixture of valine-pyrrolidine in water was administered orally to male db/db mice (n=7-10 per group). Blood sample (˜1 μl from tail for glucose level testing) was taken at t=−24 h, 0, 60, 180, 240, 300, 360 min and 24 h after administration.

diabetic db/db mice [2] = experiment: Oral Compound 100A/100B plus sitagliptin versus subcutaneous exenatide, blood glucose at 3 hours (Example 9); assay type: in vivo; settings: FIG. 10
male db/db mice [3] = experiment: In vivo assay for reduction in blood glucose levels (Example 7, Compound 100B with or without sitagliptin); settings: for reduction in plasma glucose from baseline: after 6 hours, oral
Protocol: Male db/db mice 8-9 weeks (approx 40 g) were fasted for 2 h. A combination of 1-[4-[4-[(4R,5R)-3,3-dibutyl-7-(dimethylamino)-2,3,4,5-tetrahydro-4-hydroxy-1,1-dioxido-1-benzothiepin-5-yl]phenoxy]butyl]4-aza-1-azoniabicyclo[2.2.2]octane methane sulfonate (Compound 100B) at doses of 0, 3, 30, 100 mg/kg in saline-water and 30 mg/kg sitagliptin (DPP-IV inhibitor) in a mixture of valine-pyrrolidine in water was administered orally to male db/db mice (n=6-11 per group). Blood sample (˜1 μl from tail for glucose level testing) was taken at t=−24 h, 0, 1, 3, 4, 5, 6 h and 24 h after administration.

plasma GLP-1 level = experiment: Plasma GLP-1 levels in normal rats after oral ASBTI or metformin with DPP-IV inhibitor (Example 8); assay type: in vivo; settings: for plasma GLP-1 level, ASBTI in combination with sitagliptin: oral 3, 30, 100 mg/kg + 30 mg/kg sitagliptin; for plasma GLP-1 level, ASBTI in combination with sitagliptin / plasma GLP-1 level, ASBTI alone: 0-5 h; for plasma GLP-1 level, ASBTI alone: oral 3, 30, 100 mg/kg
Protocol: 12-week-old male HSD rats were fasted for 16 h and given oral dose of 0, 3, 30, 100 mg/kg of the ASBTI 1-[4-[4-[(4R,5R)-3,3-dibutyl-7-(dimethylamino)-2,3,4,5-tetrahydro-4-hydroxy-1,1-dioxido-1-benzothiepin-5-yl]phenoxy]butyl]4-aza-1-azoniabicyclo[2.2.2]octane methane sulfonate (Synthesized by Nanosyn Inc., CA, USA) or metformin (Control, 0, 3, 30, 100, 300 mg/kg) in saline and a dose of 30 mg/kg sitaglipin in a mixture of valine-pyrrolidine in water (n=5 per group). Blood samples in volume of 0.6 ml for each time point were taken from the caudal vein with a heparinized capillary tube 0, 1, 3 and 5 h after the administration of compounds and plasma GLP-1 level were determined. Aprotinin and 10 μl of DPP-IV inhibitor per ml of blood were used for blood sample preservation during 10 min centrifugation and for storage at −70° C. or below. GLP-1 (Active pM) was tested by Millipore ELISA Kits (Millipore Corporation, 290 Concord Road, Billerica, Mass.).

diabetic db/db mice [4] = experiment: Plasma glucose in diabetic db/db mice after oral metformin plus sitagliptin (FIG. 3); assay type: in vivo; settings: combination of metformin and sitagliptin
Protocol: FIG. 3 illustrates the change in plasma glucose level in diabetic db/db mice after oral administration of a combination of metformin at doses of 0, 3, 30, 100, 300 mg/kg and 30 mg/kg sitagliptin (DPP-IV inhibitor).

[5] = FIG. 6, 7, listed as 1-[4-[4-[(4R,5R)-3,3-dibutyl-7-(dimethylamino)-2,3,4,5-tetrahydro-4-hydroxy-1,1-

## CCCC[C@]1(CC)CS(=O)(=O)c2cc(OC)c(OC)cc2[C@@H](c2ccccc2)N1
Male db/db mice [1]; 24 h after administration, 0.1-10 mg/kg with 30 mg/kg sitagliptin and ASBTI alone, FIG. 9
  change in body weight: Weight loss
Male db/db mice [1]; ASBTI alone, oral, FIG. 1
  plasma glucose concentrations, ASBTI alone: lowers plasma glucose concentrations
Male db/db mice [1]; 01 mg/kg (so in the source) + 30 mg/kg sitagliptin, oral
  reduction in plasma glucose from baseline: 5.6%
Male db/db mice [1]; 1 mg/kg + 30 mg/kg sitagliptin, oral
  reduction in plasma glucose from baseline: 15%
Male db/db mice [1]; 10 mg/kg + 30 mg/kg sitagliptin, oral
  reduction in plasma glucose from baseline: 42.3%
Male db/db mice [1]; single oral administration, 0.1-10 mg/kg in combination with 30 mg/kg sitagliptin, compared to sitagliptin alone or vehicle, FIG. 1
  reduction of the elevated blood glucose levels: dose-dependent reduction of the elevated blood glucose levels

## CCCC[C@]1(CC)CS(=O)(=O)c2cc(OC)c(OC)cc2[C@@H](c2ccccc2)N1 (relative stereo) [Compound 100A, (−)-(3R,5R)-trans-3-butyl-3-ethyl-2,3,4,5-tetrahydro-7,8-dimethoxy-5-phenyl-1,4-benzothiazepine1,1-dioxide]
Diabetic db/db mice [2]; 3 hours post-dose, oral 10 mg/kg + 30 mg/kg sitagliptin
  reduction of plasma glucose levels: 35%

## CCCCC1(CCCC)CS(=O)(=O)c2ccc(N(C)C)cc2[C@@H](c2ccc(OCCCC[N+]34CCN(CC3)CC4)cc2)[C@H]1O.CS(=O)(=O)[O-] [Compound 100B, 1-[4-[4-[(4R,5R)-3,3-dibutyl-7-(dimethylamino)-2,3,4,5-tetrahydro-4-hydroxy-1,1-dioxido-1-benzothiepin-5-yl]phenoxy]butyl]4-aza-1-azoniabicyclo[2.2.2]octane methane sulfonate salt]
Male db/db mice [3]; 24 h after administration, 3-100 mg/kg with 30 mg/kg sitagliptin, FIG. 8
  change in body weight: Weight loss
Male db/db mice [3]; ASBTI alone, 3, 30, 100 mg/kg oral, FIG. 4
  plasma glucose levels, ASBTI alone: lowers plasma glucose levels in dose dependent manner
Male db/db mice [3]; 3 mg/kg + 30 mg/kg sitagliptin
  reduction in plasma glucose from baseline: 5.6%
Male db/db mice [3]; 30 mg/kg + 30 mg/kg sitagliptin
  reduction in plasma glucose from baseline: 15%
Male db/db mice [3]; 100 mg/kg + 30 mg/kg sitagliptin
  reduction in plasma glucose from baseline: 42.3%
Male db/db mice [3]; single oral administration, 3-100 mg/kg in combination with 30 mg/kg sitagliptin, compared to sitagliptin alone or vehicle, FIG. 2
  reduction of the elevated blood glucose levels: dose-dependent reduction of the elevated blood glucose levels
Plasma GLP-1 level; FIG. 6, 7
  plasma GLP-1 level, ASBTI in combination with sitagliptin: dose-dependent increase in plasma GLP-1 level
  plasma GLP-1 level, ASBTI alone: dose-dependent increase in plasma GLP-1 level
Plasma GLP-1 level; [5]
  plasma GLP-1 level, ASBTI in combination with sitagliptin: dose-dependent increase in plasma GLP-1 level; also recorded: elevation in GLP-1 levels in a dose-dependent manner
  plasma GLP-1 level, ASBTI alone: dose-dependent increase in plasma GLP-1 level; also recorded: elevation in GLP-1 levels in a dose-dependent manner
Diabetic db/db mice [2]; 3 hours after dosing, oral + 30 mg/kg sitagliptin versus single subcutaneous 0.02 mg/kg exenatide
  blood glucose lowering compared with exenatide: reduces blood glucose levels more than a single subcutaneous injection of 0.02 mg/kg exenatide

## CN(C)C(=N)N=C(N)N [metformin, reference compound]
Diabetic db/db mice [4]
  duration of reduced plasma glucose concentrations: about 6 hours
Plasma GLP-1 level; oral metformin 30, 100, 300 mg/kg + 30 mg/kg sitagliptin, FIG. 5
  plasma GLP-1 level, metformin in combination with sitagliptin: dose-dependent increase in plasma GLP-1 level; also recorded: elevation in GLP-1 levels in plasma

## N[C@@H](CC(=O)N1CCn2c(nnc2C(F)(F)F)C1)Cc1cc(F)c(F)cc1F [sitagliptin, (3R)-3-amino-1-[9-(trifluoromethyl)-1,4,7,8-tetrazabicyclo[4.3.0]nona-6,8-dien-4-yl]-4-(2,4,5-trifluorophenyl)butan-1-one, reference compound]
Male db/db mice [1]; 0 mg/kg ASBTI + 30 mg/kg sitagliptin, oral
  reduction in plasma glucose from baseline: 5.5%
Male db/db mice [3]; 0 mg/kg ASBTI + 30 mg/kg sitagliptin
  reduction in plasma glucose from baseline: 5.5%
